Data on 1 compound can be found in US8440638B2, “Compositions and methods for modulating calcium flux, glucose homeostasis and apoptosis” (Wisconsin Alumni Research Foundation, priority 2004, dated 2013).

The subject of the assay is TRPM2-expressing HEK-293 cells. The assay is described as follows: Cell viability assay (calcein fluorescence), tet-inducible TRPM2 HEK-293 cells. It counts as cell-based. As for the experimental part: Shown are HEK-293 cells (closed diamond) and HEK-293 cells stably transfected with a tet-controlled TRPM2 construct in the presence (open squares) or absence of (open diamonds) tetracycline. […] TRPM2-expressing HEK-293 cells were grown in complete DMEM media and 1 μg/ml tetracycline until 80-90% confluent. One set of cells were re-fed with the same complete media (closed diamonds) and the other set of cells were rinsed with PBS and fed with modified media containing 1 μg/ml tetracycline, 5 mM EGTA and without calcium chloride (open squares). […] HEK-293 (close diamond) and TRPM2 expressing HEK-293 cells in the absence (open diamond) or presence of (closed square) tetracycline were exposed to 0-10 μg/ml cycloheximide for 16 h. Cell viability was determined as described in (a).
TRPM2-expressing HEK-293 cells were exposed to 0-50 μM puromycin for 16 h in the presence (open diamond) or absence (closed diamond) of 500 μM nicotinamide. […] TRPM2-expressing HEK-293 cells were exposed to 0-50 μM puromycin for 16 h in the presence (open diamond) or absence (closed diamond) of 1.5 mM 3-aminobenzamide. Cell survival was determined as described in (a).
HEK-293 and tetracycline (tet)-inducible HEK-293 TRPM2-expressing cells (23) were cultured in DMEM and 10% FBS at 37° C., 5% CO2. Media used to culture tet-inducible HEK-293 cells was supplemented with blasticidin (5 μg ml^−1; Invitrogen) and zeocin (0.4 mg/ml; Invitrogen). To induce expression of TRPM2 in recombinant HEK-293 cells, tetracycline was added to the media at 1 μg ml^−1 (Invitrogen) 24 h prior to experiments. The CRI-G1 rat β-islet tumor cell line was obtained from EACC and cultured in DMEM, 10% FBS and 2 mM glutamine.
HEK-293, tet-inducible HEK-293, and CRI-G1 cells were seeded into 6 well plates at a density of 500,000 cells per well. When cells were 50-70% confluent, puromycin was added to the media at various concentrations for 16 hours. Cell monolayers were rinsed with PBS, after which 0.5 ml of 2 μM calcein in PBS was added directly to the well for 10-20 minutes. Calcein is retained in living, but not dead cells, where it undergoes catalytic conversion into a fluorescent compound Fluorescence in each well was measured in a microplate reader using excitation and emission filters at 485/530 nm, respectively.

Structures are written as SMILES.

As for `COc1ccc(C[C@H](N)C(=O)N[C@H]2[C@@H](O)[C@H](n3cnc4c(N(C)C)ncnc43)O[C@@H]2CO)cc1` [puromycin], the “puromycin-induced cell death in Ca2+-free media” value (Ca2+ removed (5 mM EGTA) before puromycin 0-500 μM, 6 h) is listed as “completely blocked”. Moreover, the “puromycin-dependent cell death, TRPM2 not induced” value (TRPM2 expression not induced by tet) is recorded as “nearly complete protection”. Also, the “puromycin-dependent cell death, TRPM2 not induced, highest level” value (not induced by tet, 50 μM puromycin) is on record as “Some cell death”. Further, the “cell death following puromycin treatment” value (tet-induced TRPM2 expression, as little as 5 μM, dose-dependence up to 50 μM, 16 h) is reported as “profound sensitivity to cell death”.
